# Where two headings read alike, the source gives them in different places.
# Assays:
# [1] = Urinary excretion of DOPET and metabolites in healthy volunteers after oral enteric-coated capsules; format: in vivo, human; details: for cumulative metabolites distribution in urine, mean relative area percentage with respect to all identified and unidentified compounds: 24 h urine, oral 15 mg (97.3 µmole) DOPET; for mean peak in urine: approximately 6 h after oral 15 mg (97.3 µmole) DOPET, n = 20
# Experimental: (§1) The study protocol, approved by the local ethics committee (Register Protocol No. 146 17/05/2018), was conducted on 20 healthy Caucasian volunteers, aged 25–60 years with BMI ranging from 19 and 25 kg/m^2, enrolled at the University hospital facility of the Clinical Research Unit of the Department of Biomedicine and Prevention, University of Tor Vergata (Rome, Italy). Two enteric-coated capsules, each containing 7.5 mg of DOPET, were administered orally. All subjects fulfilled the following eligibility criteria: non-smokers, non-alcoholics, healthy diet, and no drugs during the experimental procedure. The administration was preceded by a 4-day washout with polyphenols and an alcoholic-free diet to avoid any interference, and by a 10-h fasting period. The study was conducted in compliance with the Declaration of Helsinki, and the selected subjects agreed to the procedure by reviewing and signing the relevant, informed consensus.
# Urine samples were collected at baseline (T0) and, after the intervention, at the following mean times: 3.45, 4.18, 5.14, 6.16, 8.19, 12, and 24 h in sterile, dark polystyrene tubes (100 mL) with screw caps with 10% L-ascorbic acid as a chemical preservative. Both plasma and urine samples were immediately shipped in dry ice to the Department of Chemical, Biological, Pharmaceutical and Environmental Sciences, University of Messina (Italy) for chemical analyses, stored at −80 °C and processed within 48 h.
# (§2) Plasma and urine samples were processed, before and after hydrolysis, according to Alemán-Jiménez et al., with some modifications. Briefly, plasma and urine samples were thawed at room temperature and centrifuged (10,000× g for 5 min). Sample supernatants (100 and 400 μL, respectively) were hydrolyzed by incubation with 300 UI (plasma) and 1500 UI (urine) of β-glucuronidase from Helix pomatia for 2 h at 37 °C, clarified with 200 μL of MeOH/HCl (0.2 M) and centrifuged at 10,000× g for 5 min. An SPE clean-up step, by using Strata X-AW cartridges (Phenomenex, Torrance, CA, USA) mounted on VacElut Cartridge Manifolds (Agilent Technologies, Inc., Santa Clara, CA, USA), was carried out. Cartridges were conditioned and equilibrated with 2 mL of MeOH/HCOOH (98:2, v/v) and 2 mL of water/HCOOH (98:2, v/v), respectively. After sample loading, SPE cartridges were washed with water/HCOOH (98:2, v/v). Analytes were eluted with 1 mL of MeOH/HCOOH (98:2, v/v) and dried by a gentle stream of nitrogen at room temperature. Extracts were recovered with 200 μL of the mobile phase used for the LC-DAD-ESI-MS/MS analyses (see Section 2.4). Quality control samples were prepared by spiking DOPET and metabolites (DOPAC, HVA, and MOPET) in baseline control plasma and urine samples at two different concentrations (1.2 ng/mL and 5.3 ng/mL) correspondent to the limit of quantification (LOQ) in plasma and urine samples, respectively. Both precision (CV < 10%) and accuracy (≥90%) recorded in three replicates were acceptable according to ICH and FDA guidelines.
# (§3) Plasma and urinary DOPET and metabolites were analyzed by LC-DAD-ESI-MS/MS (Agilent Technologies, Inc., Santa Clara, CA, USA). Chromatographic analysis was carried out by a Luna Omega PS C18 column (150 mm × 2.1 mm, 5 µm; Phenomenex, Torrance, CA, USA) at 25 °C by using a mobile phase consisting of 0.1% HCOOH (Solvent A) and methanol (Solvent B) according to the following elution program: 0–18 min, 5% B; 18–21 min, 95% B; 21–30 min, 5% B; 30–35 min, 5%. The injection volume was 10 µL, and the flow rate was 0.4 mL/min. The UV–Vis spectra were recorded, ranging from 190 to 400 nm, and chromatograms were acquired at 280 nm. […]
# [2] = Plasma pharmacokinetics of free DOPET in healthy volunteers after oral enteric-coated capsules (DOPET in EVOO), non-compartmental analysis; format: in vivo, human
# Experimental: as §1
# Blood samples were collected into 10 mL test tubes containing EDTA from a subcutaneous vein using a permanent catheter inserted into the forearm at baseline (T0) and 45, 90, 123, 150, 184, 247, 386, and 440 min. Samples were centrifuged at 1700× g for 10 min at 4 °C and the obtained plasma was aliquoted into test tubes containing citric acid (2 M, 10% v/v).
# as §2
# as §3, with “nm. The experimental parameters of the mass spectrometer (ion trap, model 6320, Agilent Technologies, Santa Clara, CA, USA) equipped with an electrospray ionization interface operating in the negative (ESI−) and positive (ESI+) ionization mode were set as follows: 3.5 kV capillary voltage, 40 psi nebulizer (N2) pressure, 350 °C drying gas temperature, 9 L/min drying gas flow, and 40 V skimmer voltage. The acquisition was carried out in full-scan mode (90–1000 m/z).” for “nm.”
# [3] = set-up: method as in PMID 20045462; details: single oral dose 2.5 mg/kg b.w., 10 subjects; cited from earlier work
# [4] = set-up: method as in PMID 17870451; details: 100 g of olives containing 76.73 mg of DOPET, 7 healthy men; cited from earlier work
# [5] = set-up: method as in PMID 12765992; details: 25 mL of EVOO, 6 healthy volunteers; cited from earlier work
# [6] = set-up: method as in PMID 23766098; details: cited from earlier work; for Cmax: olive leaf extract
# [7] = set-up: method as in PMID 32524230; details: 5 mg DOPET conveyed in EVOO, 20 volunteers; cited from earlier work
# [8] = set-up: method as in PMID 10692578; details: 24 h; enriched olive oils, 6 healthy male volunteers; cited from earlier work
# [9] = set-up: method as in doi:10.1016/j.jff.2016.02.046; details: cited from earlier work
# [10] = set-up: method as in doi:10.1016/j.foodchem.2011.07.101; details: after chronic or acute consumption of olive leaf supplements, 55 healthy young adults; cited from earlier work
# [11] = set-up: method as in PMID 28452954; details: in vitro; cited from earlier work
# [12] = human, mean, n = 20, free DOPET in plasma, oral 15 mg DOPET (2 cps)
structure (smiles),measurement,setting,value
"O=C(O)Cc1ccc(O)c(O)c1 [DOPAC, 3,4-dihydroxyphenylacetic acid]","cumulative metabolites distribution in urine, mean relative area percentage with respect to all identified and unidentified compounds",[1],13.48%
same,mean peak in urine,[1],9.93 µmol
"OCCc1ccc(O)c(O)c1 [DOPET, 3,4-dihydroxyphenyl ethanol]",bioavailability compared with the literature,"[2]; enteric-coated capsule, DOPET in EVOO, versus previous results at the same dose administered",about 2.5 times
same,Cmax,"[2]; human, plasma, po, 15 mg, mean, n = 20, free DOPET in plasma, oral 15 mg DOPET (2 cps), read-out: Cmax",5.5 ng/mL
same,Tmax,[2]; [12],2.05 h
same,half-life,[2]; [12],2.51 h
same,AUCextrap_pred,"[2]; mean, n = 20, fraction of total AUC due to extrapolated AUC, oral 15 mg DOPET",18.23%
same,Cmax,"[2]; mean, n = 20, free DOPET in plasma, oral 15 mg DOPET (2 cps)",5.48 ng/mL
same,"cumulative metabolites distribution in urine, mean relative area percentage with respect to all identified and unidentified compounds",[1],8.49%
same,mean peak in urine,[1],4.67 µmol
same,Cmax,[3],1110 nM
same,time of maximum plasma concentration,[3],13 min
same,plasma concentration at Cmax,[4],3150 ng/mL
same,time to Cmax,[4],1 h
same,Cmax,[5],25.83 ng/mL
same,Tmax,[5],0.967 h
same,Cmax,[6]; capsule matrix,56 ng/mL
same,Cmax,[6]; liquid matrix,59 ng/mL
same,decrease of Tmax,[6]; passing from encapsulated to the liquid formulation,about 30 min
same,Cmax,[7],3.79 ng/mL
same,time to Cmax,[7],30 min
same,urine excretion with respect to the dose administered,[8],29–40%
same,"urine levels of DOPET and its metabolites, share of the DOPET administered",[9]; 5 mg of DOPET/day for one week,21%
same,"urine levels of DOPET and its metabolites, share of the DOPET administered",[9]; 25 mg of DOPET/day for one week,28%
same,forms of DOPET excreted in urine,[9]; 5 or 25 mg of DOPET/day for one week,0–0.02%
same,detection in urine samples,[10],neither oleuropein nor DOPET was detected
same,genotoxicity or mutagenicity,[11],does not exhibit any genotoxicity or mutagenicity
"COc1cc(CC(=O)O)ccc1O [HVA, homovanillic acid]",mean peak in urine,[1],18.39 µmol
"COc1cc(CCO)ccc1O [MOPET, 4-hydroxy-3-methoxyphenethanol]","cumulative metabolites distribution in urine, mean relative area percentage with respect to all identified and unidentified compounds",[1],0.94%
same,mean peak in urine,[1],0.44 µmol
C/C=C1/[C@H](O[C@@H]2O[C@H](CO)[C@@H](O)[C@H](O)[C@H]2O)OC=C(C(=O)OC)[C@H]1CC(=O)OCCc1ccc(O)c(O)c1 [oleuropein],detection in urine samples,[10],neither oleuropein nor DOPET was detected
OCCc1ccc(O)cc1 [tyrosol],urine excretion with respect to the dose administered,[8],21–24%

# Reference: paper PMC10059125, “The Pharmaceutical Formulation Plays a Pivotal Role in Hydroxytyrosol Pharmacokinetics” (Pharmaceutics, 2023)
